Source: patent US4835160A, “Derivatives of pyridoindole, having anti-tumor properties” (Sanofi, priority 1986, dated 1989)

Experiments:
leukemia P388 = assay: Test for leukemia P388, IP/IP, D1; format: in vivo, CDF1 hybrid mice; details: for Number of survivors: day D30; for T/C %: survival time
In short: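 CDF1 hybrid mice inoculated i.p. on D0 with 10^6 P388 leukemia cells; compound in distilled water given i.p. once on D1, 10 mice per group. Activity as increase in survival time versus untreated controls (T/C); survivors counted on D30. 5-fluorouracil positive control under same conditions.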

in vivo [1] = assay: in vivo; parameters: species or system female CDF1 hybrid mice; details: mouse, iv
Protocol: In addition the administration, to healthy female CDF1 hybrid mice, in a single injection by intravenous route with a perfusor, lasting 4 minutes, of the compounds under test in solution in physiological serum at a rate of 0.1 ml of solution per 10 g weight of the animals has enabled it to be established that the compounds are also well tolerated at a high dosage in these conditions.

melanoma B 16 = assay: Test for melanoma B 16; format: in vivo, BDF1 hybrid mice; details: D1-D9; for Number of survivors: day D60; for T/C %: survival time
In short: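 BDF1 mice inoculated i.p. with 0.5 ml B16 melanoma homogenate (1 g tumour in 10 ml physiological serum); compound given i.p. daily D1–D9, Cis-platine positive control under same conditions. Surviving animals counted on D60; activity as survival increase vs untreated controls (T/C), toxicity if T/C ≤85%.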

leukemia P 388 = assay: Test of leukemia P 388; IP/IP, D1-5; format: in vivo, CDF1 hybrid mice; details: D1-D5; for Number of survivors: day D30; for T/C %: survival time
In short: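 CDF1 hybrid mice received 10^6 P 388 cells intraperitoneally, then compound in distilled water by intraperitoneal route daily D1-D5, 10 mice per group, 5-fluorouracil as positive control. Activity judged as T/C survival time versus untreated controls, survivors counted at D30; T/C ≤85% or day 5 minus day 1 weight change ≤ −4 g counted as toxic.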

in vivo [2] = assay: in vivo; parameters: species or system CDF1 hybrid mice; details: mouse, ip
Description: The compounds of the invention benefit from a good tolerance and a weak toxicity.
Thus the administration, to healthy CDF1 hybrid mice, in a single injection by intraperitoneal route, of the compounds under test, has enabled it to be established that the product is perfectly tolerated at a high dosage since the survival rate of the animals of the experiment was 100 out of 100 thirteen days after administration.

Structure (SMILES): Cc1cnc(NCCCN(C)C)c2c1[nH]c1ccc(O)cc12 [Derivative No. 10, 1-(3-dimethylaminopropylamino)-8-hydroxy-4-methyl-5H-pyrido[4,3-b]indole]
- Median day of survival (leukemia P388; 5 mg/kg IP): 15.3 days
- Variation by weight (leukemia P388; 5 mg/kg IP): -0.1 g
- Number of survivors (leukemia P388; 5 mg/kg IP): 0/10
- T/C % (leukemia P388; 5 mg/kg IP): 139%
- Median day of survival (leukemia P388; 10 mg/kg IP): 15.25 days
- Variation by weight (g) (leukemia P388; 10 mg/kg IP): +0.3 g
- Number of survivors (leukemia P388; 10 mg/kg IP): 0/10
- T/C % (leukemia P388; 10 mg/kg IP): 139%
- Median day of survival (leukemia P388; 20 mg/kg IP): 15.6 days
- Variation by weight (leukemia P388; 20 mg/kg IP): -0.8 g
- Number of survivors (leukemia P388; 20 mg/kg IP): 0/10
- T/C % (leukemia P388; 20 mg/kg IP): 142%
- Median day of survival (leukemia P388; 40 mg/kg IP): 15.3 days
- Variation by weight (leukemia P388; 40 mg/kg IP): -1.4 g
- Number of survivors (leukemia P388; 40 mg/kg IP): 0/10
- T/C % (leukemia P388; 40 mg/kg IP): 139%
- survival at 192 h (in vivo [1]; 25 mg/kg): 100%
- survival at 192 h (in vivo [1]; 40 mg/kg): 40%
- Median day of survival (melanoma B 16; 1.25 mg/kg IP): 32.0 days
- Variation by weight (g) (melanoma B 16; 1.25 mg/kg IP): +2.8 g
- Number of survivors (melanoma B 16; 1.25 mg/kg IP): 0/10
- T/C % (melanoma B 16; 1.25 mg/kg IP): 116%
- Median day of survival (melanoma B 16; 2.5 mg/kg IP): 38.75 days
- Variation by weight (g) (melanoma B 16; 2.5 mg/kg IP): +1.8 g
- Number of survivors (melanoma B 16; 2.5 mg/kg IP): 0/10
- T/C % (melanoma B 16; 2.5 mg/kg IP): 141%
- Median day of survival (melanoma B 16; 5 mg/kg IP): 44.0 days
- Variation by weight (g) (melanoma B 16; 5 mg/kg IP): +2.4 g
- Number of survivors (melanoma B 16; 5 mg/kg IP): 0/10
- T/C % (melanoma B 16; 5 mg/kg IP): 160%
- Median day of survival (melanoma B 16; 10 mg/kg IP): 11.7 days
- Variation by weight (g) (melanoma B 16; 10 mg/kg IP): +0.5 g
- Number of survivors (melanoma B 16; 10 mg/kg IP): 0/10
- T/C % (melanoma B 16; 10 mg/kg IP): 42%
- Median day of survival (leukemia P 388; 0.625 mg/kg IP): 15.75 days
- Variation by weight (g) (leukemia P 388; 0.625 mg/kg IP): +4.1 g
- Number of survivors (leukemia P 388; 0.625 mg/kg IP): 0/10
- T/C % (leukemia P 388; 0.625 mg/kg IP): 139%
- Median day of survival (leukemia P 388; 1.25 mg/kg IP): 17.0 days
- Variation by weight (g) (leukemia P 388; 1.25 mg/kg IP): +3.3 g
- Number of survivors (leukemia P 388; 1.25 mg/kg IP): 0/10
- T/C % (leukemia P 388; 1.25 mg/kg IP): 150%
- Median day of survival (leukemia P 388; 2.5 mg/kg IP): 16.4 days
- Variation by weight (g) (leukemia P 388; 2.5 mg/kg IP): +3.2 g
- Number of survivors (leukemia P 388; 2.5 mg/kg IP): 0/10
- T/C % (leukemia P 388; 2.5 mg/kg IP): 145%
- Median day of survival (leukemia P 388; 5 mg/kg IP): 21.0 days
- Variation by weight (g) (leukemia P 388; 5 mg/kg IP): +2.0 g
- Number of survivors (leukemia P 388; 5 mg/kg IP): 1/10
- T/C % (leukemia P 388; 5 mg/kg IP): 186%
- Median day of survival (leukemia P 388; 10 mg/kg IP): 16.75 days
- Variation by weight (g) (leukemia P 388; 10 mg/kg IP): +1.8 g
- Number of survivors (leukemia P 388; 10 mg/kg IP): 0/10
- T/C % (leukemia P 388; 10 mg/kg IP): 148%
- Median day of survival (leukemia P 388; 20 mg/kg IP): 7.8 days
- Variation by weight (leukemia P 388; 20 mg/kg IP): -0.4 g
- Number of survivors (leukemia P 388; 20 mg/kg IP): 0/10
- T/C % (leukemia P 388; 20 mg/kg IP): 69%
- survival at 312 h (in vivo [2]; 100 mg/kg): 100%

Structure (SMILES): Cc1cnc(NCCCN(C)C)c2c3cc(O)ccc3n(C)c12 [Derivative No. 14, 4,5-dimethyl 1(3-dimethylaminopropylamino)-8-hydroxy-5H-pyrido[4,3-b]indole]
- Median day of survival (leukemia P388; 5 mg/kg IP): 19.75 days
- Variation by weight (leukemia P388; 5 mg/kg IP): -1.2 g
- Number of survivors (leukemia P388; 5 mg/kg IP): 0/10
- T/C % (leukemia P388; 5 mg/kg IP): 173%
- Median day of survival (leukemia P388; 10 mg/kg IP): 19.0 days
- Variation by weight (leukemia P388; 10 mg/kg IP): -1.4 g
- Number of survivors (leukemia P388; 10 mg/kg IP): 1/10
- T/C % (leukemia P388; 10 mg/kg IP): 167%
- Median day of survival (leukemia P388; 20 mg/kg IP): 18.75 days
- Variation by weight (leukemia P388; 20 mg/kg IP): -2.5 g
- Number of survivors (leukemia P388; 20 mg/kg IP): 1/10
- T/C % (leukemia P388; 20 mg/kg IP): 164%
- survival at 192 h (in vivo [1]; 50 mg/kg): 100%
- Median day of survival (melanoma B 16; 1.25 mg/kg IP): 29.75 days
- Variation by weight (g) (melanoma B 16; 1.25 mg/kg IP): +1.0 g
- Number of survivors (melanoma B 16; 1.25 mg/kg IP): 0/10
- T/C % (melanoma B 16; 1.25 mg/kg IP): 123%
- Median day of survival (melanoma B 16; 2.5 mg/kg IP): 32.6 days
- Variation by weight (g) (melanoma B 16; 2.5 mg/kg IP): +0.1 g
- Number of survivors (melanoma B 16; 2.5 mg/kg IP): 0/10
- T/C % (melanoma B 16; 2.5 mg/kg IP): 134%
- Median day of survival (melanoma B 16; 5 mg/kg IP): 50.0 days
- Variation by weight (melanoma B 16; 5 mg/kg IP): -0.2 g
- Number of survivors (melanoma B 16; 5 mg/kg IP): 1/10
- T/C % (melanoma B 16; 5 mg/kg IP): 206%
- Median day of survival (melanoma B 16; 10 mg/kg IP): 11.75 days
- Variation by weight (melanoma B 16; 10 mg/kg IP): -1.9 g
- Number of survivors (melanoma B 16; 10 mg/kg IP): 0/10
- T/C % (melanoma B 16; 10 mg/kg IP): 48%
- Median day of survival (leukemia P 388; 2.5 mg/kg IP): 19.25 days
- Variation by weight (g) (leukemia P 388; 2.5 mg/kg IP): +0.9 g
- Number of survivors (leukemia P 388; 2.5 mg/kg IP): 1/10
- T/C % (leukemia P 388; 2.5 mg/kg IP): 166%
- Median day of survival (leukemia P 388; 5 mg/kg IP): 22 days
- Variation by weight (leukemia P 388; 5 mg/kg IP): -1.0 g
- Number of survivors (leukemia P 388; 5 mg/kg IP): 3/10
- T/C % (leukemia P 388; 5 mg/kg IP): 190%
- Median day of survival (leukemia P 388; 10 mg/kg IP): 11.75 days
- Variation by weight (leukemia P 388; 10 mg/kg IP): -1.7 g
- Number of survivors (leukemia P 388; 10 mg/kg IP): 0/10
- T/C % (leukemia P 388; 10 mg/kg IP): 102%
- Median day of survival (leukemia P 388; 20 mg/kg IP): 7.4 days
- Variation by weight (leukemia P 388; 20 mg/kg IP): -4.4 g
- Number of survivors (leukemia P 388; 20 mg/kg IP): 0/10
- T/C % (leukemia P 388; 20 mg/kg IP): 64%
- survival at 312 h (in vivo [2]; 25 mg/kg): 100%
